Test results published in patent publication US20100160445A1, “Synergistic Mixtures of OPP and DGH” (priority 2002, published 2010).
Where a name gives a salt, the structure may show the parent alone.

System: mildew
Assay: Mildew resistance testing of caulking adhesives, ASTM D3273
Type: cell-based
Description: Testing was also completed on Franklin International Caulking Adhesives. The testing that was conducted was done in accordance with test ASTM D3273 as set forth in the Annual Book of ASTM Standards, Vol 06.01 which is hereby incorporated by reference. This is a standard test method for mildew known to those skilled in the art. When performing this test OPP was not tested by itself as it is known in the art of coatings that significant amounts of OPP are required, typically in the range of 2,000 to 10,000 ppm which is supported by EPA Registration No.'s 39967-11-67869 and EPA Registration No. 464-78-67869. An example of the significant amounts of OPP needed can also be seen in the OPP results in the paint testing shown above.
• 10=No Mildew Growth, Excellent Mildew Resistance • 7-9=Trace Mildew Growth, Very Good Mildew Resistance • 6-5=Moderate Mildew Growth, Poor Mildew Resistance • 4-0=Heavy Mildew Growth, Failed

[1] = Titebond Professional Drywall Adhesive, 500 ppm
[2] = Titebond Professional Drywall Adhesive, 1000 ppm
[3] = Titebond Professional Drywall Adhesive, 1500 ppm
[4] = Titebond Professional Drywall Adhesive, 2000 ppm
[5] = Titebond Professional Tub Surround Adhesive, 500 ppm
[6] = Titebond Professional Tub Surround Adhesive, 1000 ppm
[7] = Titebond Professional Tub Surround Adhesive, 1500 ppm
[8] = Titebond Professional Tub Surround Adhesive, 2000 ppm
[9] = Titebond Solvent Free Construction Adhesive, 500 ppm
[10] = Titebond Solvent Free Construction Adhesive, 1000 ppm
[11] = Titebond Solvent Free Construction Adhesive, 1500 ppm
[12] = Titebond Solvent Free Construction Adhesive, 2000 ppm
[13] = Titebond Solvent Free Fast Grab FRP Adhesive, 500 ppm
[14] = Titebond Solvent Free Fast Grab FRP Adhesive, 1000 ppm
[15] = Titebond Solvent Free Fast Grab FRP Adhesive, 1500 ppm
[16] = Titebond Solvent Free Fast Grab FRP Adhesive, 2000 ppm
[17] = Titebond Solvent Free Subfloor Adhesive, 500 ppm
[18] = Titebond Solvent Free Subfloor Adhesive, 1000 ppm
[19] = Titebond Solvent Free Subfloor Adhesive, 1500 ppm
[20] = Titebond Solvent Free Subfloor Adhesive, 2000 ppm

CCCCCCCCCCCCNC(=N)N [DGH, Dodecylguanidine Hydrochloride]
Mildew Results 7 Days [1]: 10
Mildew Results 14 Days [1]: 10
Mildew Results 21 Days [1]: 10
Mildew Results 28 Days [1]: 10
Mildew Results 7 Days [2]: 10
Mildew Results 14 Days [2]: 10
Mildew Results 21 Days [2]: 10
Mildew Results 28 Days [2]: 10
Mildew Results 7 Days [3]: 10
Mildew Results 14 Days [3]: 10
Mildew Results 21 Days [3]: 10
Mildew Results 28 Days [3]: 10
Mildew Results 7 Days [4]: 10
Mildew Results 14 Days [4]: 10
Mildew Results 21 Days [4]: 10
Mildew Results 28 Days [4]: 10
Mildew Results 7 Days [5]: 10
Mildew Results 14 Days [5]: 10
Mildew Results 21 Days [5]: 10
Mildew Results 28 Days [5]: 10
Mildew Results 7 Days [6]: 10
Mildew Results 14 Days [6]: 10
Mildew Results 21 Days [6]: 10
Mildew Results 28 Days [6]: 10
Mildew Results 7 Days [7]: 10
Mildew Results 14 Days [7]: 10
Mildew Results 21 Days [7]: 10
Mildew Results 28 Days [7]: 10
Mildew Results 7 Days [8]: 10
Mildew Results 14 Days [8]: 10
Mildew Results 21 Days [8]: 10
Mildew Results 28 Days [8]: 10
Mildew Results 7 Days [9]: 10
Mildew Results 14 Days [9]: 10
Mildew Results 21 Days [9]: 10
Mildew Results 28 Days [9]: 10
Mildew Results 7 Days [10]: 10
Mildew Results 14 Days [10]: 10
Mildew Results 21 Days [10]: 10
Mildew Results 28 Days [10]: 10
Mildew Results 7 Days [11]: 10
Mildew Results 14 Days [11]: 10
Mildew Results 21 Days [11]: 10
Mildew Results 28 Days [11]: 10
Mildew Results 7 Days [12]: 10
Mildew Results 14 Days [12]: 10
Mildew Results 21 Days [12]: 10
Mildew Results 28 Days [12]: 10
Mildew Results 7 Days [13]: 10
Mildew Results 14 Days [13]: 10
Mildew Results 21 Days [13]: 0
Mildew Results 28 Days [13]: 0
Mildew Results 7 Days [14]: 10
Mildew Results 14 Days [14]: 10
Mildew Results 21 Days [14]: 0
Mildew Results 28 Days [14]: 0
Mildew Results 7 Days [15]: 10
Mildew Results 14 Days [15]: 10
Mildew Results 21 Days [15]: 10
Mildew Results 28 Days [15]: 9
Mildew Results 7 Days [16]: 10
Mildew Results 14 Days [16]: 10
Mildew Results 21 Days [16]: 10
Mildew Results 28 Days [16]: 10
Mildew Results 7 Days [17]: 7
Mildew Results 14 Days [17]: 7
Mildew Results 21 Days [17]: 0
Mildew Results 28 Days [17]: 0
Mildew Results 7 Days [18]: 7
Mildew Results 14 Days [18]: 7
Mildew Results 21 Days [18]: 0
Mildew Results 28 Days [18]: 0
Mildew Results 7 Days [19]: 7
Mildew Results 14 Days [19]: 7
Mildew Results 21 Days [19]: 0
Mildew Results 28 Days [19]: 0
Mildew Results 7 Days [20]: 10
Mildew Results 14 Days [20]: 10
Mildew Results 21 Days [20]: 10
Mildew Results 28 Days [20]: 10
